Data on 1 compound can be found in article PMC8162438, “Cancer cell-selective modulation of mitochondrial respiration and metabolism by potent organogold(III) dithiocarbamates” (Chemical Science, 2020).

In the test the test system is MDA-MB-231. Put plainly: Apoptosis analysis, Annexin V-FITC/PI FACS. The class given is cell-based. The conditions noted are these: MDA-MB-231, 10 μM, 4 h, extrapolated from Fig. 10B. From the text:
Apoptosis is a common cell death pathway for chemotherapeutics which can be characterized by distinct morphological features and biochemical mechanisms.[88,89] Apoptosis occurs normally in healthy cells to maintain a healthy population of cells during aging or development of tissues. Some transition metal-based drugs can trigger apoptosis due to […] of p53 dependant pathway (a tumour suppressor gene).[90,91] Populations of apoptotic cells can be determined by containing cells with Annexin V and PI.[92,93] Cells undergoing apoptosis contain ample amount of phosphatidylserine (PS) which can be bound by Annexin V. The Annexin is then labelled with FITC, a green fluorogenic dye which can be visualized by fluorescence activated cell sorting (FACS). PI is used to stain damaged DNA to distinguish apoptotic from necrotic cells. […]
media. […] The plates were read using a Genios plate reader (λ = 570 nm). […]
Cell Viability of 1a-1e and 2a-2e (Suspended Cell Lines). The cell viability of 2a was determined in K562. […]
10% CO 2. […] To each designated well was then added 20 µL of CellTiter-Glo solution and orbitally shaken for 5 minutes and the luminescence (1000 ms integration and 150 ms gain) acquired on a Genios plate reader. […]

Regarding `C[N+](C)=C1[S][Au-2]2([S]1)[c]1ccccc1Cc1cccc[n+]12.F[P-](F)(F)(F)(F)F` (stereo not shown) [2a], the “Increase in apoptotic cells in comparison to control” value is listed as 36%.
